Tests used:
Experiment in all cases: normalised viability (% of control), CellTiter-Blue; higher = more viable cells (about 100 = DMSO control)
Conditions in all cases: incubation time: 72 h
[1] = system: HCC1599
Method in brief: (§1)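 Compound dissolved in 5 µl medium was pre-loaded into 384-well plates, and breast cancer cell lines in 20 µl suspension were seeded on top and incubated 72 h. After adding 2.5 µl CellTiter-Blue reagent for 2 h at 37 °C, fluorescence was read at 560/590 nm. Plates were normalised to vehicle (100) and a positive kill control (0), with Z'-factor quality control. Each value is normalised viability at a single listed concentration from the series.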

[2] = system: CAL-120
Method in brief: as §1

[3] = system: CAL-148
Procedure: (§2)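 DSRT, CellTiter-Blue viability, 72 h incubation. Signal is normalised to DMSO and benzethonium chloride controls. Value is the normalised response at dose 7.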

[4] = system: DU-4475
Procedure: as §2

[5] = system: MDA-MB-453
Procedure: as §2

[6] = system: CAL-85-1
Procedure: as §2

[7] = system: HDQ-P1
Procedure: as §2

[8] = system: CAL-51
Procedure: as §2

[9] = system: CAL-148; remark: listed apart in the source
Procedure: (§3)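 DSRT, CellTiter-Blue viability, 72 h incubation. Signal is normalised to DMSO and benzethonium chloride controls. Value is the normalised response at dose 3.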

[10] = system: MFM-223
Procedure: as §3

[11] = system: DU-4475; remark: listed apart in the source
Procedure: as §3

[12] = system: HCC1143
Procedure: as §3

[13] = system: BT-549
Procedure: as §3

[14] = system: MDA-MB-468
Procedure: as §3

[15] = system: MDA-MB-453; remark: listed apart in the source
Procedure: as §3

[16] = system: CAL-85-1; remark: listed apart in the source
Procedure: as §3

[17] = system: HDQ-P1; remark: listed apart in the source
Procedure: as §3

[18] = system: SK-BR-3
Procedure: as §3

[19] = system: HCC1599; remark: listed apart in the source
Procedure: as §3

[20] = system: MDA-MB-436
Procedure: as §3

[21] = system: Hs578T
Procedure: as §3

[22] = system: MDA-MB-231
Procedure: as §3

[23] = system: BT-474
Procedure: as §3

[24] = system: CAL-51; remark: listed apart in the source
Procedure: as §3

[25] = system: CAL-120; remark: listed apart in the source
Procedure: as §3

[26] = system: HCC1937
Procedure: as §3

[27] = system: CAL-148; remark: listed apart in the source
Procedure: (§4)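 DSRT, CellTiter-Blue viability, 72 h incubation. Signal is normalised to DMSO and benzethonium chloride controls. Value is the normalised response at dose 8.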

[28] = system: DU-4475; remark: listed apart in the source
Procedure: as §4

[29] = system: MDA-MB-453; remark: listed apart in the source
Procedure: as §4

[30] = system: CAL-85-1; remark: listed apart in the source
Procedure: as §4

[31] = system: HDQ-P1; remark: listed apart in the source
Procedure: as §4

[32] = system: CAL-51; remark: listed apart in the source
Procedure: as §4

O=C(Cc1ccc(-c2ccc(OCCN3CCOCC3)cc2)cn1)NCc1ccccc1 [KX2-391]
Conditions	normalised viability [%]
[1], 10 nM	95.6
[1], 1000 nM	62.3
[1], 10000 nM	58.7
[2], 10 nM	93.5
[2], 1000 nM	21.3
[2], 10000 nM	21.3
[3], 1000 nM	18.4
[4], 1000 nM	9.93
[5], 1000 nM	25
[6], 1000 nM	33.9
[7], 1000 nM	45.1
[8], 1000 nM	11.1
[9], 10 nM	89.1
[10], 100 nM	52.8
[11], 10 nM	94.4
[12], 100 nM	33
[13], 100 nM	27.8
[14], 100 nM	47.6
[15], 10 nM	107
[16], 10 nM	88.1
[17], 10 nM	108
[18], 100 nM	19.3
[19], 100 nM	88
[20], 100 nM	59.9
[21], 100 nM	20.7
[22], 100 nM	26.1
[23], 100 nM	63.5
[24], 10 nM	101
[25], 100 nM	27.6
[26], 100 nM	25.1
[27], 3000 nM	24.2
[28], 3000 nM	8.65
[29], 3000 nM	36.2
[30], 3000 nM	42.1
[31], 3000 nM	41.6
[32], 3000 nM	11.3

N#Cc1ccc(C(c2ccc(C#N)cc2)n2cncn2)cc1 [Letrozole]
Conditions	normalised viability [%]
[1], 10 nM	81.2
[1], 1000 nM	70.7
[1], 10000 nM	81.9
[2], 10 nM	72.4
[2], 1000 nM	86.6
[2], 10000 nM	80.2
[3], 1000 nM	86
[4], 1000 nM	87.2
[5], 1000 nM	96.5
[6], 1000 nM	84.8
[7], 1000 nM	83.8
[8], 1000 nM	106
[9], 10 nM	87.8
[10], 100 nM	74.9
[11], 10 nM	99.8
[12], 100 nM	77.9
[13], 100 nM	97
[14], 100 nM	91.3
[15], 10 nM	88
[16], 10 nM	90.3
[17], 10 nM	101
[18], 100 nM	83
[19], 100 nM	104
[20], 100 nM	106
[21], 100 nM	88.1
[22], 100 nM	84
[23], 100 nM	102
[24], 10 nM	110
[25], 100 nM	76.4
[26], 100 nM	97.4
[27], 3000 nM	95.5
[28], 3000 nM	85.8
[29], 3000 nM	105
[30], 3000 nM	90
[31], 3000 nM	94
[32], 3000 nM	111

CCN(CC)CCCC(C)Nc1c2ccc(Cl)cc2nc2ccc(OC)cc12 (stereo not given) [Mepacrine]
Conditions	normalised viability [%]
[1], 0.99 nM	105
[1], 10 nM	85.5
[1], 99 nM	82.1
[1], 990 nM	67.3
[1], 1000 nM	79.5
[1], 10000 nM	30.9
[2], 0.99 nM	114
[2], 10 nM	102
[2], 99 nM	109
[2], 990 nM	16.3
[2], 1000 nM	89.6
[2], 10000 nM	5.76
[3], 99 nM	122
[3], 1000 nM	81.4
[4], 99 nM	97.3
[4], 1000 nM	84.3
[5], 99 nM	97.2
[5], 1000 nM	101
[6], 99 nM	97.8
[6], 1000 nM	90.3
[7], 99 nM	86.9
[7], 1000 nM	84.9
[8], 99 nM	96.2
[8], 1000 nM	103
[9], 0.99 nM	116
[9], 10 nM	107
[10], 9.9 nM	97
[10], 100 nM	97.9
[11], 0.99 nM	83.1
[11], 10 nM	96.4
[12], 9.9 nM	130
[12], 100 nM	106
[13], 9.9 nM	86.1
[13], 100 nM	90.3
[14], 9.9 nM	110
[14], 100 nM	105
[15], 0.99 nM	98.4
[15], 10 nM	100
[16], 0.99 nM	99
[16], 10 nM	92.6
[17], 0.99 nM	117
[17], 10 nM	114
[18], 9.9 nM	99.8
[18], 100 nM	91.3
[19], 9.9 nM	88.2
[19], 100 nM	88.9
[20], 9.9 nM	108
[20], 100 nM	91.3
[21], 9.9 nM	114
[21], 100 nM	110
[22], 9.9 nM	95.2
[22], 100 nM	89.8
[23], 9.9 nM	113
[23], 100 nM	109
[24], 0.99 nM	95.9
[24], 10 nM	99.6
[25], 9.9 nM	117
[25], 100 nM	104
[26], 9.9 nM	99.4
[26], 100 nM	87.4
[27], 297 nM	73.2
[27], 3000 nM	56.4
[28], 297 nM	84
[28], 3000 nM	69.1
[29], 297 nM	89
[29], 3000 nM	43.1
[30], 297 nM	87.8
[30], 3000 nM	59.5
[31], 297 nM	56.8
[31], 3000 nM	42.9
[32], 297 nM	93.3
[32], 3000 nM	77.8

C[C@H]1C[C@@H]2[C@H]([C@@H](O)C[C@@]3(C)[C@H]2CC[C@]3(O)C(=O)CO)[C@@]2(C)C=CC(=O)C=C12 [Methylprednisolone]
Conditions	normalised viability [%]
[1], 10 nM	105
[1], 1000 nM	102
[1], 10000 nM	92.5
[2], 10 nM	89.7
[2], 1000 nM	79.3
[2], 10000 nM	81.1
[3], 1000 nM	108
[4], 1000 nM	104
[5], 1000 nM	69.3
[6], 1000 nM	97
[7], 1000 nM	109
[8], 1000 nM	102
[9], 10 nM	91.3
[10], 100 nM	81.1
[11], 10 nM	101
[12], 100 nM	86.6
[13], 100 nM	111
[14], 100 nM	96.6
[15], 10 nM	100
[16], 10 nM	114
[17], 10 nM	116
[18], 100 nM	82.5
[19], 100 nM	108
[20], 100 nM	94.6
[21], 100 nM	85.3
[22], 100 nM	120
[23], 100 nM	119
[24], 10 nM	101
[25], 100 nM	79.8
[26], 100 nM	97.7
[27], 3000 nM	96.8
[28], 3000 nM	97.9
[29], 3000 nM	74.1
[30], 3000 nM	101
[31], 3000 nM	105
[32], 3000 nM	105

From the supplement of paper PMC4862054
